Data from the CheMixHub ionic liquid set.
± gives the uncertainty stated by the source.

Experiment: xn = mol fraction of the nth substance listed
Conditions: for viscosity: 101 kPa, x2 = 0; for electrical conductivity: 100 kPa

c1ccsc1 + N#C[C-](C#N)C#N.OCCC[n+]1ccccc1
Conditions | viscosity [mPa·s]
293.15 K | 0.653 ± 0.065
298.15 K | 0.615 ± 0.062
303.15 K | 0.58 ± 0.058
308.15 K | 0.545 ± 0.055
313.15 K | 0.518 ± 0.052
318.15 K | 0.491 ± 0.049
323.15 K | 0.464 ± 0.047
328.15 K | 0.441 ± 0.044
333.15 K | 0.42 ± 0.042
338.15 K | 0.4 ± 0.04
343.15 K | 0.382 ± 0.038
348.15 K | 0.364 ± 0.037

c1ccsc1 + N#C[C-](C#N)C#N.OCC[n+]1ccccc1
Conditions | viscosity [mPa·s]
303.15 K | 0.58 ± 0.058
333.15 K | 0.42 ± 0.042
348.15 K | 0.364 ± 0.037

CCCCCCCCCCCCCCCC[N+](C)(C)C.[Br-] + NCC(=O)NCC(=O)O + O
Conditions | electrical conductivity [S/m]
293.15 K, x1 = 3.61e-06, x2 = 0.0001802 | 0.0032 ± 0.0011
293.15 K, x1 = 5.41e-06, x2 = 0.0001802 | 0.0042 ± 0.0011
293.15 K, x1 = 7.22e-06, x2 = 0.0001802 | 0.0053 ± 0.0011
293.15 K, x1 = 9.02e-06, x2 = 0.0001802 | 0.006 ± 0.001
293.15 K, x1 = 3.428e-05, x2 = 0.0001802 | 0.0097 ± 0.001
293.15 K, x1 = 3.608e-05, x2 = 0.0001802 | 0.0099 ± 0.001
298.15 K, x1 = 1.8e-06, x2 = 9.009e-05 | 0.0016 ± 0.0011
298.15 K, x1 = 3.61e-06, x2 = 9.009e-05 | 0.0027 ± 0.0011
298.15 K, x1 = 5.41e-06, x2 = 9.009e-05 | 0.0037 ± 0.0011
298.15 K, x1 = 5.41e-06, x2 = 0.0001802 | 0.0044 ± 0.0011
298.15 K, x1 = 7.21e-06, x2 = 9.009e-05 | 0.0048 ± 0.0011
298.15 K, x1 = 7.22e-06, x2 = 0.0001802 | 0.0054 ± 0.001
298.15 K, x1 = 9.02e-06, x2 = 0.0001802 | 0.0062 ± 0.0011
298.15 K, x1 = 1.082e-05, x2 = 9.009e-05 | 0.0065 ± 0.0011
298.15 K, x1 = 1.082e-05, x2 = 0.0001802 | 0.0072 ± 0.0011
298.15 K, x1 = 1.262e-05, x2 = 1.802e-05 | 0.0046 ± 0.001
298.15 K, x1 = 2.885e-05, x2 = 9.009e-05 | 0.0094 ± 0.001
298.15 K, x1 = 3.067e-05, x2 = 0.0001802 | 0.0098 ± 0.001
298.15 K, x1 = 3.245e-05, x2 = 9.009e-05 | 0.0099 ± 0.001
303.15 K, x1 = 1.8e-06, x2 = 9.009e-05 | 0.0018 ± 0.0012
303.15 K, x1 = 3.61e-06, x2 = 9.009e-05 | 0.0029 ± 0.0011
303.15 K, x1 = 3.61e-06, x2 = 0.0001802 | 0.0036 ± 0.001
303.15 K, x1 = 5.41e-06, x2 = 0.0001802 | 0.0046 ± 0.001
303.15 K, x1 = 7.21e-06, x2 = 9.009e-05 | 0.005 ± 0.0012
303.15 K, x1 = 7.22e-06, x2 = 0.0001802 | 0.0055 ± 0.001
303.15 K, x1 = 9.02e-06, x2 = 9.009e-05 | 0.006 ± 0.0012
303.15 K, x1 = 9.02e-06, x2 = 0.0001802 | 0.0064 ± 0.0011
303.15 K, x1 = 1.081e-05, x2 = 1.802e-05 | 0.0044 ± 0.001
303.15 K, x1 = 1.082e-05, x2 = 9.009e-05 | 0.007 ± 0.0012
303.15 K, x1 = 1.082e-05, x2 = 0.0001802 | 0.0073 ± 0.0011
303.15 K, x1 = 1.262e-05, x2 = 1.802e-05 | 0.0051 ± 0.0011
303.15 K, x1 = 1.262e-05, x2 = 9.009e-05 | 0.0078 ± 0.0011
303.15 K, x1 = 1.263e-05, x2 = 0.0001802 | 0.0081 ± 0.0011
303.15 K, x1 = 1.622e-05, x2 = 1.802e-05 | 0.0061 ± 0.001
303.15 K, x1 = 1.623e-05, x2 = 9.009e-05 | 0.0089 ± 0.001
303.15 K, x1 = 1.624e-05, x2 = 0.0001802 | 0.009 ± 0.001
303.15 K, x1 = 1.802e-05, x2 = 1.802e-05 | 0.0065 ± 0.001
303.15 K, x1 = 1.803e-05, x2 = 9.009e-05 | 0.0092 ± 0.001
303.15 K, x1 = 1.804e-05, x2 = 0.0001802 | 0.0098 ± 0.0011
303.15 K, x1 = 1.982e-05, x2 = 1.802e-05 | 0.007 ± 0.001
303.15 K, x1 = 1.983e-05, x2 = 9.009e-05 | 0.0094 ± 0.001
303.15 K, x1 = 1.984e-05, x2 = 0.0001802 | 0.0099 ± 0.001
303.15 K, x1 = 2.164e-05, x2 = 9.009e-05 | 0.0095 ± 0.001
303.15 K, x1 = 2.344e-05, x2 = 9.009e-05 | 0.0097 ± 0.001
303.15 K, x1 = 2.524e-05, x2 = 9.009e-05 | 0.0099 ± 0.0011
303.15 K, x1 = 2.703e-05, x2 = 1.802e-05 | 0.0079 ± 0.001
303.15 K, x1 = 2.883e-05, x2 = 1.802e-05 | 0.0081 ± 0.001
303.15 K, x1 = 3.064e-05, x2 = 1.802e-05 | 0.0082 ± 0.001
303.15 K, x1 = 3.244e-05, x2 = 1.802e-05 | 0.0084 ± 0.001
303.15 K, x1 = 3.424e-05, x2 = 1.802e-05 | 0.0084 ± 0.001
303.15 K, x1 = 3.604e-05, x2 = 1.802e-05 | 0.0086 ± 0.001
308.15 K, x1 = 1.8e-06, x2 = 9.009e-05 | 0.0018 ± 0.0011
308.15 K, x1 = 1.8e-06, x2 = 0.0001802 | 0.003 ± 0.0011
308.15 K, x1 = 3.61e-06, x2 = 9.009e-05 | 0.003 ± 0.0012
308.15 K, x1 = 3.61e-06, x2 = 0.0001802 | 0.0039 ± 0.001
308.15 K, x1 = 5.41e-06, x2 = 9.009e-05 | 0.0042 ± 0.0012
308.15 K, x1 = 5.41e-06, x2 = 0.0001802 | 0.0049 ± 0.001
308.15 K, x1 = 7.21e-06, x2 = 9.009e-05 | 0.0052 ± 0.0011
308.15 K, x1 = 7.22e-06, x2 = 0.0001802 | 0.0057 ± 0.0011
308.15 K, x1 = 9.02e-06, x2 = 0.0001802 | 0.0066 ± 0.0011
308.15 K, x1 = 1.081e-05, x2 = 1.802e-05 | 0.0047 ± 0.001
308.15 K, x1 = 1.262e-05, x2 = 1.802e-05 | 0.0055 ± 0.0011
308.15 K, x1 = 1.262e-05, x2 = 9.009e-05 | 0.0081 ± 0.0012
308.15 K, x1 = 1.442e-05, x2 = 1.802e-05 | 0.006 ± 0.001
308.15 K, x1 = 1.622e-05, x2 = 1.802e-05 | 0.0063 ± 0.0011
308.15 K, x1 = 1.624e-05, x2 = 0.0001802 | 0.0099 ± 0.0012
308.15 K, x1 = 1.802e-05, x2 = 1.802e-05 | 0.0068 ± 0.0011
308.15 K, x1 = 1.803e-05, x2 = 9.009e-05 | 0.01 ± 0.0011
308.15 K, x1 = 2.163e-05, x2 = 1.802e-05 | 0.0076 ± 0.001
308.15 K, x1 = 2.343e-05, x2 = 1.802e-05 | 0.0077 ± 0.001
308.15 K, x1 = 2.523e-05, x2 = 1.802e-05 | 0.008 ± 0.0011
308.15 K, x1 = 2.703e-05, x2 = 1.802e-05 | 0.0082 ± 0.0011
308.15 K, x1 = 2.883e-05, x2 = 1.802e-05 | 0.0084 ± 0.0011
308.15 K, x1 = 3.064e-05, x2 = 1.802e-05 | 0.0084 ± 0.0011
308.15 K, x1 = 3.244e-05, x2 = 1.802e-05 | 0.0086 ± 0.0011
308.15 K, x1 = 3.424e-05, x2 = 1.802e-05 | 0.0087 ± 0.0011
308.15 K, x1 = 3.604e-05, x2 = 1.802e-05 | 0.009 ± 0.0012
313.15 K, x1 = 1.8e-06, x2 = 9.009e-05 | 0.0019 ± 0.0012
313.15 K, x1 = 1.8e-06, x2 = 0.0001802 | 0.0031 ± 0.001
313.15 K, x1 = 3.61e-06, x2 = 9.009e-05 | 0.0033 ± 0.0013
313.15 K, x1 = 3.61e-06, x2 = 0.0001802 | 0.004 ± 0.001
313.15 K, x1 = 5.41e-06, x2 = 9.009e-05 | 0.0045 ± 0.0012
313.15 K, x1 = 5.41e-06, x2 = 0.0001802 | 0.005 ± 0.001
313.15 K, x1 = 7.21e-06, x2 = 1.802e-05 | 0.0039 ± 0.0011
313.15 K, x1 = 7.21e-06, x2 = 9.009e-05 | 0.0055 ± 0.0011
313.15 K, x1 = 7.22e-06, x2 = 0.0001802 | 0.0059 ± 0.0011
313.15 K, x1 = 9.02e-06, x2 = 9.009e-05 | 0.0064 ± 0.0012
313.15 K, x1 = 9.02e-06, x2 = 0.0001802 | 0.0067 ± 0.0011
313.15 K, x1 = 1.082e-05, x2 = 9.009e-05 | 0.0075 ± 0.0013
313.15 K, x1 = 1.082e-05, x2 = 0.0001802 | 0.0078 ± 0.0011
313.15 K, x1 = 1.262e-05, x2 = 1.802e-05 | 0.006 ± 0.0011
313.15 K, x1 = 1.262e-05, x2 = 9.009e-05 | 0.0084 ± 0.0012
313.15 K, x1 = 1.263e-05, x2 = 0.0001802 | 0.0085 ± 0.0012
313.15 K, x1 = 1.442e-05, x2 = 1.802e-05 | 0.0065 ± 0.0011
313.15 K, x1 = 1.442e-05, x2 = 9.009e-05 | 0.0091 ± 0.0013
313.15 K, x1 = 1.443e-05, x2 = 0.0001802 | 0.0094 ± 0.0013
313.15 K, x1 = 1.622e-05, x2 = 1.802e-05 | 0.0069 ± 0.0011
313.15 K, x1 = 1.802e-05, x2 = 1.802e-05 | 0.0075 ± 0.0011
313.15 K, x1 = 1.982e-05, x2 = 1.802e-05 | 0.0078 ± 0.001
313.15 K, x1 = 2.163e-05, x2 = 1.802e-05 | 0.0081 ± 0.0011
313.15 K, x1 = 2.343e-05, x2 = 1.802e-05 | 0.0082 ± 0.0011
313.15 K, x1 = 2.523e-05, x2 = 1.802e-05 | 0.0084 ± 0.0011
313.15 K, x1 = 2.703e-05, x2 = 1.802e-05 | 0.0086 ± 0.0011
313.15 K, x1 = 2.883e-05, x2 = 1.802e-05 | 0.0089 ± 0.0011
313.15 K, x1 = 3.064e-05, x2 = 1.802e-05 | 0.009 ± 0.0011
313.15 K, x1 = 3.244e-05, x2 = 1.802e-05 | 0.0093 ± 0.0011
313.15 K, x1 = 3.424e-05, x2 = 1.802e-05 | 0.0095 ± 0.0012
313.15 K, x1 = 3.604e-05, x2 = 1.802e-05 | 0.0097 ± 0.0012
